The record followed here is ChEMBL document CHEMBL1201862, “PubChem BioAssay data set” (2004).

Calls of active or inactive are those of the source. How the calls were made is not given here.

Assay [1] in a line: Counterscreen for AddAB inhibitors: absorbance-based bacterial cell-based high throughput dose response assay for inhibitors of bacterial viability. [Related pubchem assays (depositor defined):AID435030, AID449728, AID449731, AID488942, AID488955, AID488956]. The assay is classed as functional. In general terms: The purpose of a counterscreen is to sort out artefacts and off-target activity.

Assay [2] has as its target Nonstructural protein 1 (Influenza A virus, UniProt Q194T2). The assay is classed as functional, Influenza A virus (A/California/07/2009(H1N1)).
In assay [3] the target is T1, Exodeoxyribonuclease V (Escherichia coli (strain K12), UniProt P04993+P07648+P08394).
T1 sequence (P04993 whole entry): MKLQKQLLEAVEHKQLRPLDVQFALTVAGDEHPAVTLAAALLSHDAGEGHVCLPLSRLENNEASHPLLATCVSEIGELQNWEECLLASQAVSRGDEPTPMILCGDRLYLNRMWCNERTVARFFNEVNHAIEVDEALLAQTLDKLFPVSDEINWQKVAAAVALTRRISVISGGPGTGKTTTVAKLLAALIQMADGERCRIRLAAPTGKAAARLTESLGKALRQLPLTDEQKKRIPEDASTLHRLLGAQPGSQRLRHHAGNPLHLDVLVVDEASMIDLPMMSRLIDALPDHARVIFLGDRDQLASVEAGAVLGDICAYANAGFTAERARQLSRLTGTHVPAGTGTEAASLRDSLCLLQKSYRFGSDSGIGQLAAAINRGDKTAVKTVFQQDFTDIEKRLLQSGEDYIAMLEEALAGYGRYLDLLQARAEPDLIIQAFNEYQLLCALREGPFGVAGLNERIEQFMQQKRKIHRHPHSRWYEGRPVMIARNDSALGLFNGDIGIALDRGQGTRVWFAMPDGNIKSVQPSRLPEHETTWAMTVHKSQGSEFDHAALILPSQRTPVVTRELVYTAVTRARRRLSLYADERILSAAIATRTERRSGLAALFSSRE
T1 sequence (P07648 whole entry): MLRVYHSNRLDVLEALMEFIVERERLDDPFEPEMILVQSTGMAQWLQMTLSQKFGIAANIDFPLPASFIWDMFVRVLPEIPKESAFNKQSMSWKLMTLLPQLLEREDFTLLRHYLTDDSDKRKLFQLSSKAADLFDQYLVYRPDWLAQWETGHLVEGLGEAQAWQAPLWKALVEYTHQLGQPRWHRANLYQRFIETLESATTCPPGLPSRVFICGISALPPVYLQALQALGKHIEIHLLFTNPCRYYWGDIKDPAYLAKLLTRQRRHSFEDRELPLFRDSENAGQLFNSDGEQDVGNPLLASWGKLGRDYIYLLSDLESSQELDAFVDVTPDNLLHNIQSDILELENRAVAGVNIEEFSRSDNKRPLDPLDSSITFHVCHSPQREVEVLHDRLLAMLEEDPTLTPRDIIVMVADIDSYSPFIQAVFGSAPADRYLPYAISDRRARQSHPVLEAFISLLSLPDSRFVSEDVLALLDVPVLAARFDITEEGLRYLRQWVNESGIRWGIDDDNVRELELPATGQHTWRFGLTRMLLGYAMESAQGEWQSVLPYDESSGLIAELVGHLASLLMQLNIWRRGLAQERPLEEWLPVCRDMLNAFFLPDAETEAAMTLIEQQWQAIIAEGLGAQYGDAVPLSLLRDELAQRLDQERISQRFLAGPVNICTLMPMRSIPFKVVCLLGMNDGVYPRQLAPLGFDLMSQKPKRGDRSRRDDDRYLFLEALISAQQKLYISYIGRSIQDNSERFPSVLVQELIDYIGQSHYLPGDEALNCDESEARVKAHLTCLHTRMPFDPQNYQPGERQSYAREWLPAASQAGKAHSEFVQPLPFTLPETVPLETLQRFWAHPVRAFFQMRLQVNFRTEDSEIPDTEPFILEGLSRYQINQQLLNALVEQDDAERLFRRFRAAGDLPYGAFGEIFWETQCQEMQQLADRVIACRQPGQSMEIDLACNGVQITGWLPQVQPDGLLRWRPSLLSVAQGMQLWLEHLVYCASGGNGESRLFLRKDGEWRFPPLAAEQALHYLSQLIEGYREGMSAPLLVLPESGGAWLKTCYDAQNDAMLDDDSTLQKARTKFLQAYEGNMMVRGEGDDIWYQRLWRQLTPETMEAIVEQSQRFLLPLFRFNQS
T1 sequence (P08394 whole entry): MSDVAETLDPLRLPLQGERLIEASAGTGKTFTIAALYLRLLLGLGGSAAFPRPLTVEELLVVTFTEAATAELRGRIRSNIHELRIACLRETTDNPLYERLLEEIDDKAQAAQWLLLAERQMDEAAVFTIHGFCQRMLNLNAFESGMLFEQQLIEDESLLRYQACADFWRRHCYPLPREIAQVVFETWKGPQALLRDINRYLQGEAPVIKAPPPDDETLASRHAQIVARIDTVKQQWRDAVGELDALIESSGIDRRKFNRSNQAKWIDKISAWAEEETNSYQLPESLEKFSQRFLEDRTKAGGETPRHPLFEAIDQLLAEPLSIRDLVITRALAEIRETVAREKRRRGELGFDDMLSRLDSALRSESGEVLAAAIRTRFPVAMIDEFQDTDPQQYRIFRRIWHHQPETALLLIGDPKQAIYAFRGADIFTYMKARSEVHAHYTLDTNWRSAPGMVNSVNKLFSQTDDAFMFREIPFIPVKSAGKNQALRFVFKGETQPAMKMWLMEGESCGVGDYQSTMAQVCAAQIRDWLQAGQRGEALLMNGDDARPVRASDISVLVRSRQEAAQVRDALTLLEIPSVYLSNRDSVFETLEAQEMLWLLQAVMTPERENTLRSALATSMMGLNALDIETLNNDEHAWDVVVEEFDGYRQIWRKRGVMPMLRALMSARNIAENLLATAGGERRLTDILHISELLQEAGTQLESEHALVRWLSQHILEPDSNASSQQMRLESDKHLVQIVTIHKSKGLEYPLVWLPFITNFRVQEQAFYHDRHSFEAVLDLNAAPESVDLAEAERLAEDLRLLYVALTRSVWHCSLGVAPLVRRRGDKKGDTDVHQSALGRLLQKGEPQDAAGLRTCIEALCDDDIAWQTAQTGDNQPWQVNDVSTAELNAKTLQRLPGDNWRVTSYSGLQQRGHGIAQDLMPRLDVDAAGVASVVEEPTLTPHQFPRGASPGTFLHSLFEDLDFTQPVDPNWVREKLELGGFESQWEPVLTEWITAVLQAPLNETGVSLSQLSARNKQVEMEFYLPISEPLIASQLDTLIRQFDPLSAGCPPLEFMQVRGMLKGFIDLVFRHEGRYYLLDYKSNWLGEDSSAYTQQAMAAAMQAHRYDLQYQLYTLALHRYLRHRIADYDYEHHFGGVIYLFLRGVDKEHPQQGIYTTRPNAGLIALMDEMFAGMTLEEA
Description: RecBCD inhibition via phage-restricted bacterial growth – absorbance, V66 E. coli, mutant T4 phage, counter-screen for AddAB inhibitor project, dose response (AID 492957). The assay is classed as functional, cell-based, Escherichia coli str. K-12 substr. MG1655.

Sequence of Nonstructural protein 1 (Q194T2 whole entry): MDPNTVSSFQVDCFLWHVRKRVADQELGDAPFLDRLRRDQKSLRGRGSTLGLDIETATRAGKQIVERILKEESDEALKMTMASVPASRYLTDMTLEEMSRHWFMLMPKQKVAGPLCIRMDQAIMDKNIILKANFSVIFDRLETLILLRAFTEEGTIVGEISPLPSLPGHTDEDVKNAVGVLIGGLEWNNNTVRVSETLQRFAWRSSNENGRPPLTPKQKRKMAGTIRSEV

In the case of `Cc1onc(-c2ccccc2)c1C(=O)NC(=S)NNC(=O)c1ccc(O)cc1O`, the IC50 was > 39.5 µM (inactive) in assay [1], 11.4 µM (active) in assay [2] and > 39.5 µM (inactive) in assay [3].

With `O=C(N/N=C/c1ccc(O)cc1O)C(=O)N/N=C/c1ccc(O)cc1O`, the IC50 in assay [1] and in assay [3] was > 119 µM (inactive) in each case.

One may read the IC50 as the midpoint of a concentration-inhibition curve.
